Results as given in ChEMBL document CHEMBL5226326, “Discovery of 1-Benzoyl 4-Phenoxypiperidines as Small-Molecule Inhibitors of the β-Catenin/B-Cell Lymphoma 9 Protein-Protein Interaction” (J Med Chem, 2021).
Calls of active or inactive are those of the source. The calls are words filed in the database; no cut-off is given here.

Tests used:
[1] = target: T1, beta-catenin-B-cell lymphoma 9 protein complex (Homo sapiens) (UniProt P35222+O00512); assay: Inhibition of full length wild type beta-catenin/N-terminal biotinylated human BCL9 HD2 (350 to 375 residues) protein-protein interaction in human SW480 cells at 1 to 10 uM incubated for 3 hr by immunoblot based pull-down assay; assay type: cell-based; conditions: dose 1-10 µM
SW480 [2] = assay: Inhibition of full length beta-catenin D145A mutant/N-terminal biotinylated human BCL9 HD2 (350 to 375 residues) protein-protein interaction in human SW480 cells at 1 to 10 uM incubated for 3 hr by immunoblot based pull-down assay; assay type: cell-based; conditions: dose 1-10 µM
SW480 [3] = assay: Inhibition of full length beta-catenin E155A mutant/N-terminal biotinylated human BCL9 HD2 (350 to 375 residues) protein-protein interaction in human SW480 cells at 1 to 10 uM incubated for 3 hr by immunoblot based pull-down assay; assay type: cell-based; conditions: dose 1-10 µM
[4] = target: T2, beta-catenin-B-cell lymphoma 9 protein complex (Homo sapiens, UniProt P35222); assay: Inhibition of full length beta-catenin (1 to 781 residues) (unknown origin) expressed in Escherichia coli BL21 (DE3)/N-terminal biotinylated human BCL9 HD2 (350 to 375 residues) protein-protein interaction incubated for 1 hr by Alphascreen assay
T2 sequence (P35222 whole entry): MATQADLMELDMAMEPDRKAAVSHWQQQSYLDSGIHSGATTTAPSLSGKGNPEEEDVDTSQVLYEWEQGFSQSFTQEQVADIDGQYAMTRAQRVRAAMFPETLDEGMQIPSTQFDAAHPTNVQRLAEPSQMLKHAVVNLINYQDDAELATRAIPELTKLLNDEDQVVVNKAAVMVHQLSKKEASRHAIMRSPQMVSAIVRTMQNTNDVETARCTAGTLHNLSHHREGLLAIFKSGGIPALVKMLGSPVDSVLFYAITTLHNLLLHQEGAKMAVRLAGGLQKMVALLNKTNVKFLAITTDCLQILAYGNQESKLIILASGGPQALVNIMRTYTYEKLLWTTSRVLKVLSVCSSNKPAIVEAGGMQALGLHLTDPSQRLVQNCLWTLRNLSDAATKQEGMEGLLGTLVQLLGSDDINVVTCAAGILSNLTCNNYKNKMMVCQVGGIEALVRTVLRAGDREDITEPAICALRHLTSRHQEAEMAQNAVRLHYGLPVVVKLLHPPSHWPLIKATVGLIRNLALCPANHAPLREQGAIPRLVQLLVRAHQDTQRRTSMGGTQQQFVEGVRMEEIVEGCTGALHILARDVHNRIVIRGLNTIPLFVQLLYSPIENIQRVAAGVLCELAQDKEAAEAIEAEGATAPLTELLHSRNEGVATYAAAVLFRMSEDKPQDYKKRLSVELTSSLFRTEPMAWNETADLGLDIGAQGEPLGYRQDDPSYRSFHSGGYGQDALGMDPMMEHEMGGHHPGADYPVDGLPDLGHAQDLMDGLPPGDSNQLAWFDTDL
T2 sequence (O00512 whole entry): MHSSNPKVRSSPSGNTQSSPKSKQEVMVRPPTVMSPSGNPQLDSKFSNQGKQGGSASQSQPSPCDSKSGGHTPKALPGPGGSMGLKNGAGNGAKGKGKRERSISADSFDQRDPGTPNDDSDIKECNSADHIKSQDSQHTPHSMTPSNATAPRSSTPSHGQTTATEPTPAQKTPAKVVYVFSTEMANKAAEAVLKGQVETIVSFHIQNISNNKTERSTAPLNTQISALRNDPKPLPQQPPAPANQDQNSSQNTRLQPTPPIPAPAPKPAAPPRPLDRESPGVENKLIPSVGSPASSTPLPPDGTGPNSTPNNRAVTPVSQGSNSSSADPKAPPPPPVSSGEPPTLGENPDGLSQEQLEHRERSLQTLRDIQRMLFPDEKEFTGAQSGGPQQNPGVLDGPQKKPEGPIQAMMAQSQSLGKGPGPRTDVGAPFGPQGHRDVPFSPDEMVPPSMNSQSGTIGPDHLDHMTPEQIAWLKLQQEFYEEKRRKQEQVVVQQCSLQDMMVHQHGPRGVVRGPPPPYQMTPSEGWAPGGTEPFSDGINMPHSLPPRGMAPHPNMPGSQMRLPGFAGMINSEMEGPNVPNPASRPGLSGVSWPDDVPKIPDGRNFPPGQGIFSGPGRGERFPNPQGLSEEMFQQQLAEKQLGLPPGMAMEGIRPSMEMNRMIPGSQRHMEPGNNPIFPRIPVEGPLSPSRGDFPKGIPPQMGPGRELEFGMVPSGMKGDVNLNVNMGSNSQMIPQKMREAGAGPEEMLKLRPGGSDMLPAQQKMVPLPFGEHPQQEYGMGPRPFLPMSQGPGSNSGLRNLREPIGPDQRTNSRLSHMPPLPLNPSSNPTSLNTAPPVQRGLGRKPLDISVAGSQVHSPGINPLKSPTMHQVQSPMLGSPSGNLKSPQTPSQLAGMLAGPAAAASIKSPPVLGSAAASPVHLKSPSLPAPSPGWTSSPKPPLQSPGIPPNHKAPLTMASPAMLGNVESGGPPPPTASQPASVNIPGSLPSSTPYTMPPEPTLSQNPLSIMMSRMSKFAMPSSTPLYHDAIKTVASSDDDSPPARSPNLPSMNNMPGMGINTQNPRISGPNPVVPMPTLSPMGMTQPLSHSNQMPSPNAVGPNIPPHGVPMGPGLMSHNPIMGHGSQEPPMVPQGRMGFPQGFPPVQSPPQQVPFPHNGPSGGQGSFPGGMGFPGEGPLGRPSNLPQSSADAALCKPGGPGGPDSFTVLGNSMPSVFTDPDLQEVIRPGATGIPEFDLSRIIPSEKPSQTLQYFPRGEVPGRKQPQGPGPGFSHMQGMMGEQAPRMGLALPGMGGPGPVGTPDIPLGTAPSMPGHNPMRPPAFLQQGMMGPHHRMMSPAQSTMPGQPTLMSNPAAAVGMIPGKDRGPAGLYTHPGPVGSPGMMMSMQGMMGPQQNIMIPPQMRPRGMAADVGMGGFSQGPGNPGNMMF

[5] = target: T2, beta-catenin-B-cell lymphoma 9 protein complex; assay: Inhibition of full length beta-catenin (1 to 781 residues) (unknown origin) expressed in Escherichia coli BL21 (DE3)/N-terminal biotinylated human BCL9 HD2 (350 to 375 residues) protein-protein interaction assessed as inhibition constant incubated for 1 hr by Alphascreen assay
Homo sapiens [6] = organism: Homo sapiens; assay: Selectivity ratio, ratio of Ki for inhibition of full length beta-catenin (1 to 781 residues) (unknown origin) expressed in Escherichia coli BL21 (DE3)/N-terminal biotinylated human BCL9 HD2 (350 to 375 residues) protein-protein interaction to Ki for inhibition of full length beta-catenin (1 to 686 residues) (unknown origin) expressed in Escherichia coli BL21 (DE3)/N-terminal biotinylated human E-cadherin (824 to 877 residues) protein-protein interaction
[7] = target: T1, beta-catenin-B-cell lymphoma 9 protein complex (Homo sapiens); assay: Inhibition of beta-catenin/BCL9 protein-protein interaction in human HCT-116 cells at 1 to 12.5 uM incubated for 24 hr by Co-immunoprecipitation assay; assay type: cell-based; conditions: dose 1-12.5 µM
[8] = target: Catenin beta-1/Cadherin-1 (Homo sapiens) (UniProt P35222+P12830); assay: Inhibition of beta-catenin/E-cadherin protein-protein interaction in human HCT-116 cells at 1 to 12.5 uM incubated for 24 hr by Co-immunoprecipitation assay; assay type: cell-based; conditions: dose 1-12.5 µM
Catenin beta-1/Cadherin-1 (Homo sapiens), sequence (P12830 155-882 partner limits assumed, one chain of several): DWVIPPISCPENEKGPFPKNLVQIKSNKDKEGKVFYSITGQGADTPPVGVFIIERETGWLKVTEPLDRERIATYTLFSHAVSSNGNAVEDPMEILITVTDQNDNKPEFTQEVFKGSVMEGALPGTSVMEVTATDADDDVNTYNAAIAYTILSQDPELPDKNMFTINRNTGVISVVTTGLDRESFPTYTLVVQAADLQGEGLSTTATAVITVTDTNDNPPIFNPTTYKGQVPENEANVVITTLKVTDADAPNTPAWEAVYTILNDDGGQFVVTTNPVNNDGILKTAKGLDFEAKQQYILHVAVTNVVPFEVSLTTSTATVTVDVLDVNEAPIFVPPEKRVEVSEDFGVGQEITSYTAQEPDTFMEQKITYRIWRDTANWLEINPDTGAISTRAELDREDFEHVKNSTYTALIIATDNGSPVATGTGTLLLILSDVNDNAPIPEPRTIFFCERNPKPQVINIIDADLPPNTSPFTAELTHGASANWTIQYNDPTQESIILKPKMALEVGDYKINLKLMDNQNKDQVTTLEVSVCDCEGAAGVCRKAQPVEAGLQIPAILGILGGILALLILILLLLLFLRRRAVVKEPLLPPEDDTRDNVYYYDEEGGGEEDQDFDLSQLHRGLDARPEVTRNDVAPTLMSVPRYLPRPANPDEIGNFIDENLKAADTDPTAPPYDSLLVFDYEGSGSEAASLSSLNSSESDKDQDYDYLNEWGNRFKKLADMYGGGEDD

SW480 [9] = assay: Inhibition of Wnt/beta-catenin transactivation signalling in human SW480 cells transfected with renilla luciferase and FOPFlash reporter gene at 1.56 uM incubated for 24 hrs by dual-luciferase assay (reference value: 100%); assay type: cell-based; conditions: values are per cent of control
SW480 [10] = assay: Inhibition of Wnt/beta-catenin transactivation signalling in human SW480 cells transfected with renilla luciferase and FOPFlash reporter gene at 3.125 uM incubated for 24 hrs by dual-luciferase assay (reference value: 100%); assay type: cell-based; conditions: values are per cent of control
SW480 [11] = assay: Inhibition of Wnt/beta-catenin transactivation signalling in human SW480 cells transfected with renilla luciferase and FOPFlash reporter gene at 6.25 uM incubated for 24 hrs by dual-luciferase assay (reference value: 100%); assay type: cell-based; conditions: values are per cent of control
Homo sapiens [12] = organism: Homo sapiens; assay: Selectivity ratio, ratio of IC50 for inhibition of Wnt/beta-catenin transactivation signalling in human HEK293 cells transfected with TOPFlash reporter gene to IC50 for inhibition of Wnt/beta-catenin D145A/E155A mutant transactivation signalling in human HEK293 cells transfected with TOPFlash reporter gene; assay type: cell-based
SW480 [13] = assay: Inhibition of Wnt/beta-catenin signaling pathway in human SW480 cells assessed as reduction in Axin2 level at 12.5 uM incubated for 24 hrs by qRT-PCR analysis (reference value: 100%); assay type: cell-based; conditions: values are per cent of control
SW480 [14] = assay: Inhibition of Wnt/beta-catenin signaling pathway in human SW480 cells assessed as reduction in BCL9L level at 12.5 uM incubated for 24 hrs by qRT-PCR analysis (reference value: 100%); assay type: cell-based; conditions: values are per cent of control
SW480 [15] = assay: Inhibition of Wnt/beta-catenin signaling pathway in human SW480 cells assessed as reduction in MMP7 level at 12.5 uM incubated for 24 hrs by qRT-PCR analysis (reference value: 100%); assay type: cell-based; conditions: values are per cent of control
SW480 [16] = assay: Inhibition of Wnt/beta-catenin signaling pathway in human SW480 cells assessed as reduction in HPRT level at 12.5 uM incubated for 24 hrs by qRT-PCR analysis (reference value: 100%); assay type: cell-based; conditions: values are per cent of control
SW480 [17] = assay: Inhibition of Wnt/beta-catenin signaling pathway in human SW480 cells assessed as reduction in Axin2 level at 1 to 12.5 uM incubated for 24 hrs by western blot analysis; assay type: cell-based; conditions: dose 1-12.5 µM

SMILES: CC(C)(C)C1CCC(c2cc(C(=O)N3CCC(Oc4cc(N5CCNCC5)ccc4C#N)CC3)ccc2O[C@@H]2CNC[C@H]2OCCOCCOCCNC(=O)CCCC[C@@H]2SC[C@@H]3NC(=O)N[C@@H]32)CC1 (mixture of isomers)
- inhibition [1]: Active
- inhibition (SW480 [2]): inactive
- inhibition (SW480 [3]): inactive

SMILES: CC(C)(C)C1CCC(c2cc(C(=O)N3CCC(Oc4cc(N5CCNCC5)ccc4Cl)CC3)ccc2O[C@H]2CCNC2)CC1 (mixture of isomers)
- IC50 [4]: 2.7 µM
- Ki [5]: 2.2 µM

SMILES: CC(C)(CN)C(=O)NCc1cc(F)cc(OC2CCN(C(=O)c3ccc(O[C@H]4CCNC4)c(C4CCCCC4)c3)CC2)c1
- IC50 [4]: > 100 µM
- Ki [5]: > 84 µM

SMILES: NCCC(=O)NCc1cc(F)cc(OC2CCN(C(=O)c3ccc(O[C@H]4CCNC4)c(C4CCCCC4)c3)CC2)c1
- IC50 [4]: > 100 µM
- Ki [5]: > 84 µM

SMILES: O=C(c1ccc(O[C@H]2CCNC2)c(-c2ccc3cn[nH]c3c2)c1)N1CCC(Oc2cc(F)cc(N3CCNCC3)c2)CC1
- IC50 [4]: 11 µM
- Ki [5]: 10 µM

SMILES: CC(C)(C)C1CCC(c2cc(C(=O)N3CCC(Oc4cc(N5CCNCC5)ccc4C#N)CC3)ccc2O[C@H]2CCNC2)CC1 (mixture of isomers; cis)
- Ratio Ki (Homo sapiens [6]): 20
- inhibition [7]: Active
- inhibition [8]: inactive
- residual activity (SW480 [9]): 100%
- residual activity (SW480 [10]): 104%
- residual activity (SW480 [11]): 96.5%
- Ratio IC50 (Homo sapiens [12]): 4.2
- response, % of control (SW480 [13]): 9.28%
- response, % of control (SW480 [14]): 18.6%
- response, % of control (SW480 [15]): 41.8%
- response, % of control (SW480 [16]): 99.6%
- inhibition (SW480 [17]): Active

SMILES: COC(=O)c1ccc(N2CCNCC2)cc1OC1CCN(C(=O)c2ccc(O[C@H]3CCNC3)c(C3CCC(C(C)(C)C)CC3)c2)CC1 (mixture of isomers)
- IC50 [4]: 17 µM
- Ki [5]: 14 µM

SMILES: CC(C)(C)C1CCC(c2cc(C(=O)N3CCC(Oc4cc(N5CCNCC5)ccc4C(=O)O)CC3)ccc2O[C@H]2CCNC2)CC1 (some centres not stated)
- IC50 [4]: > 100 µM
- Ki [5]: > 84 µM
